In brackets after ≈: the same amount, converted by molar mass.

In general, IC50 refers to the concentration at which inhibition is half-maximal.

For the experiment, the system named is HeLa. The experiment is described as follows: Cytotoxicity against human HeLa cells. The experiment is classed as functional, cell-based.
Consider `COC(=O)/C1=C/[C@@H]2[C@@H](C(C)C)CC=C(C)[C@@H]2C[C@H](OC(=O)/C=C\c2cn(C)cn2)[C@]2(C)C=C[C@@]1(O)O2`, for which the half-inhibitory concentration (IC50) is 0.09 µg/mL (≈ 0.181 µM).
For the compound `CO[C@]12C=C[C@](C)(O1)[C@@H](OC(=O)/C=C\c1cn(C)cn1)C[C@H]1C(C)=CC[C@H](C(C)C)[C@H]1/C=C\2CO[C@@H]1OC[C@@H](O)[C@@H](O)[C@@H]1OC(C)=O`, the IC50 came out at 0.017 µg/mL (≈ 0.0259 µM).
The compound `CO[C@]12C=C[C@](C)(O1)[C@@H](OC(=O)/C=C/c1cn(C)cn1)C[C@H]1C(C)=CC[C@H](C(C)C)[C@H]1/C=C\2CO` [ELEUTHEROBIN AGLYCON] yielded an IC50 of 0.09 µg/mL (≈ 0.186 µM). Against the preceding compound, the IC50 is about 5.3-fold higher.
The result for `CO[C@]12C=C[C@](C)(O1)[C@@H](OC(=O)/C=C/c1cn(C)cn1)C[C@H]1C(C)=CC[C@H](C(C)C)[C@H]1/C=C\2CO[C@@H]1OC[C@@H](O)[C@@H](O)[C@@H]1OC(C)=O` [ELEUTHEROBIN] reads 0.017 µg/mL (≈ 0.0259 µM).
For the compound `CCOC(=O)/C1=C/[C@@H]2[C@@H](C(C)C)CC=C(C)[C@@H]2C[C@H](OC(=O)/C=C/c2cn(C)cn2)[C@]2(C)C=C[C@@]1(O)O2` [SARCODICTYIN B], the IC50 amounted to 0.09 µg/mL (≈ 0.176 µM).

(Values after ChEMBL document CHEMBL1159361, “(Z)-sarcodictyin A, a new highly cytotoxic diterpenoid from the soft coral Bellonella albiflora” (J Nat Prod, 2003).)
